In US8637557B2, “Aminothiazole derivative” (Taisho Pharmaceutical Co., Ltd, priority 2009, dated 2014):
Like-named read-outs stand apart in the source and are kept apart here.

Biological target: T1, human PI 3-kinase p120γ (Homo sapiens, UniProt P48736)
T1 construct: purchased Millipore Corporation
Assay: PI 3-kinase p120γ enzyme activity inhibition test
Assay type: biochemical
Settings: ATP 10.0 μM, PIP2-PS 5.0 μM, 30° C., 2 hours
Description: Using human PI 3-kinase p120γ (manufactured by Millipore Corporation) and a mixed micellized product (hereinafter abbreviated as PIP2-PS) of the substrate thereof, L-a-Phosphatidyl-D-myo-inositol-4,5-bisphosphate (product of Calbiochem, hereinafter abbreviated as PIP2), and L-a-Phosphatidyl-L-Serine (manufactured by Sigma, hereinafter abbreviated as PS), the compound of the present invention was examined for the inhibitory action on PI3 Kinase p120γ enzyme activity (Km=8.9 μM for ATP, Km=4.0 μM for PIP2-PS).
PIP2-PS was prepared by mixing 500 μM of PIP2 and 2.5 nM of PS and sonicating the mixture for 40 minutes while ice cooling to cause micellization. ATP (final concentration 10.0 μM), [γ-^33P] ATP (final concentration 10 μCi/ml), PIP2-PS (final concentration 5.0 μM) and DMSO solutions of the test compound in different concentrations (compound final concentration 1.0×10^−5 to 2.4×10^−12 M, DMSO final concentration 0.1%) were added to PI 3-kinase p120γ, stirred and reacted at 30° C. for 2 hours. Using Phospholipid-Coated FlashPlate Microplates, 96-Well and Phospholipid FlashPlate Coating Buffer (both manufactured by PerkinElmer Co., Ltd.), PIP2-PS and phosphorylated PIP2-PS were allowed to be adsorbed to the well wall of the plate and collected. The well was washed twice with PBS (Phosphate-Buffered Saline) and dried. The radioactivity was measured using Top Count NXT (manufactured by PerkinElmer Co., Ltd.), whereby the phosphorylated amount (a) of PIP2-PS at the time of compound addition was calculated.
The same procedure was carried out in the absence of the test compound and the phosphorylated amount (b) of PIP2-PS was calculated. Further, the same procedure was carried out in the absence of both of the substrate and the test compound, and the PIP2-PS phosphorylated amount (c) of the background was calculated.
The PI3 Kinase p120γ enzyme activity suppression rate of the compound was calculated by the following formula. Suppression rate (%)=[1−(a−c)/(b−c)]×100
More specifically, using the suppression rate by the test compound of different concentrations, the IC50 value was calculated according to the dose-dependent inhibition curve analyzed by a data analysis software Origin (Lightstone Corp.) and used as the inhibitory activity index.

[1] = read-out: PI3Kγ (IC50 value class)

T1 sequence (P48736 whole entry): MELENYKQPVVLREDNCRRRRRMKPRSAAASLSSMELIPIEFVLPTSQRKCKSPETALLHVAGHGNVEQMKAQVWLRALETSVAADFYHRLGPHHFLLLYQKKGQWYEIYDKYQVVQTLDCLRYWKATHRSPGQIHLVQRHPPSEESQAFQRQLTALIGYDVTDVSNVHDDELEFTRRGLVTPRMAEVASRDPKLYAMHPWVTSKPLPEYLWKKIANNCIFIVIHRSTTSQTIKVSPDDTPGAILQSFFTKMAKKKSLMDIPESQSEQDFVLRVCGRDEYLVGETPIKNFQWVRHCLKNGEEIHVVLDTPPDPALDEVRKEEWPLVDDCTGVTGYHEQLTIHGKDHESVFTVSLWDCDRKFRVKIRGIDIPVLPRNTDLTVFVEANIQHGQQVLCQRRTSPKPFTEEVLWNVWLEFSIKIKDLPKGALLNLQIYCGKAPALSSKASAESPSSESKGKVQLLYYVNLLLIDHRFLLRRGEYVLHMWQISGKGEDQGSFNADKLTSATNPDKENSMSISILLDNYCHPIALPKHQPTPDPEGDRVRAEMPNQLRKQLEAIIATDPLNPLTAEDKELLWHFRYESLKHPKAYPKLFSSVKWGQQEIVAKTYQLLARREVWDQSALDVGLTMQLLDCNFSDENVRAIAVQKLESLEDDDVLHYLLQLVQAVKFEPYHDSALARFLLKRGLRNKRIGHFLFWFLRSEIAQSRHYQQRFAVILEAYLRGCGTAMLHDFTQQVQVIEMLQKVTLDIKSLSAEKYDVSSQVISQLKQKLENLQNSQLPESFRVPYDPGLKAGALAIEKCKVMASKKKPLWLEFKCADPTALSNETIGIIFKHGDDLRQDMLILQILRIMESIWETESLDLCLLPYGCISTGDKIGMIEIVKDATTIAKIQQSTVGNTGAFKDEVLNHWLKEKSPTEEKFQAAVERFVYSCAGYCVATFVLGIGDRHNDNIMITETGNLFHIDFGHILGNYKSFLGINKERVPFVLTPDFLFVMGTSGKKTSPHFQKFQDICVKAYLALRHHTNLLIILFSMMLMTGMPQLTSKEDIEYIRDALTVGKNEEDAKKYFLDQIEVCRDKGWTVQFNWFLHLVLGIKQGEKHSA

SMILES: CC(=O)Nc1nc(C)c(-c2nc(CCc3cccnc3)no2)s1 [Example 12]
- IC50 [1]: 100 to 500 nM

SMILES: CC(=O)Nc1nc(C)c(-c2nc(CC(C)(C)S(=O)(=O)NC(C)(C)C)no2)s1 [Example 94]
- IC50 [1]: 100 to 500 nM

SMILES: COCCNC(=O)CCNC(=O)Nc1nc(C)c(-c2nc(CC(F)(F)F)no2)s1 [Example 167]
- IC50 [1]: < 100 nM

SMILES: CCOC(=O)[C@H]1CCCC1NC(=O)Nc1nc(C)c(-c2nc(-c3cccnc3)no2)s1 (some centres unmarked) [Example 144]
- IC50 [1]: < 100 nM

SMILES: CCOC(=O)C(C)(C)Cc1noc(-c2sc(NC(C)=O)nc2C)n1 [Example 105]
- IC50 [1]: 100 to 500 nM

SMILES: CC(=O)Nc1nc(C)c(-c2nc(CCC(C)(C)O)no2)s1 [Example 47]
- IC50 [1]: 100 to 500 nM

SMILES: CC(=O)Nc1nc(C)c(-c2nc(CC(O)CC(F)(F)F)no2)s1 (centres unmarked) [Example 67]
- IC50 (read-out: IC50 value): 428 nM
- IC50 [1]: 100 to 500 nM

SMILES: CC(=O)Nc1nc(C)c(-c2nc(CC(C)(C)S(N)(=O)=O)no2)s1 [Example 107]
- IC50 [1]: 100 to 500 nM

SMILES: Cc1nc(NC(=O)NCCC(=O)N2CCNCC2)sc1-c1nc(CC(F)(F)F)no1 [Example 169]
- IC50 [1]: < 100 nM

SMILES: CNCc1noc(-c2sc(NC(C)=O)nc2C)n1 [Example 79]
- IC50 [1]: 500 to 10000 nM

SMILES: CC(=O)Nc1nc(C)c(-c2nc(-c3cccc(CCO)c3)no2)s1 [Example 28]
- IC50 [1]: < 100 nM

SMILES: CC(=O)Nc1nc(C)c(-c2nc(C(C)(C)CO)no2)s1 [Example 65]
- IC50 [1]: < 100 nM

SMILES: CC(=O)Nc1nc(C)c(-c2nc(CC(C)(C)C(O)c3ccccc3)no2)s1 (centres unmarked) [Example 100]
- IC50 [1]: 100 to 500 nM

SMILES: Cc1nc(NC(=O)NCCC(=O)OCCO)sc1-c1nc(-c2cccnc2)no1 [Example 151]
- IC50 [1]: < 100 nM

SMILES: COCCCC(=O)Nc1nc(C)c(-c2nc(-c3cccnc3)no2)s1 [Example 128]
- IC50 [1]: < 100 nM

SMILES: Cc1nc(NC(=O)NCCC(=O)OC(C)C)sc1-c1nc(-c2cccnc2)no1 [Example 140]
- IC50 [1]: < 100 nM

SMILES: CC(=O)Nc1nc(C)c(-c2nc(CC(C)C)no2)s1 [Example 20]
- IC50 [1]: < 100 nM

SMILES: COC(=O)CCc1noc(-c2sc(NC(C)=O)nc2C)n1 [Example 71]
- IC50 [1]: 100 to 500 nM

SMILES: CC(=O)Nc1nc(C)c(-c2nc(CC(C)(C)CO)no2)s1 [Example 31, N-{5-[3-(3-hydroxy-2,2-dimethylpropyl)-1,2,4-oxadiazol-5-yl]-4-methyl-1,3-thiazol-2-yl}acetamide]
- IC50 [1]: < 100 nM

SMILES: CC(=O)Nc1nc(C)c(-c2nc(-c3cccnc3C)no2)s1 [Example 6]
- IC50 [1]: < 100 nM

SMILES: CC(=O)Nc1nc(C)c(-c2nc(N3CCOCC3)no2)s1 [Example 87, N-{4-methyl-5-[3-(morpholin-4-yl)-1,2,4-oxadiazol-5-yl]-1,3-thiazol-2-yl}acetamide]
- IC50 [1]: 100 to 500 nM

SMILES: CC(=O)Nc1nc(C)c(-c2nc(CC(C)(C)CF)no2)s1 [Example 95]
- IC50 [1]: < 100 nM

SMILES: Cc1nc(NC(=O)NCCC(=O)OC(C)(C)C)sc1-c1nc(-c2cccnc2)no1 [Example 117, Tert-butyl N-({4-methyl-5-[3-(pyridin-3-yl)-1,2,4-oxadiazol-5-yl]-1,3-thiazol-2-yl}carbamoyl)-β-alaninate]
- IC50 [1]: < 100 nM

SMILES: COCC(C)(C)Cc1noc(-c2sc(NC(C)=O)nc2C)n1 [Example 51]
- IC50 [1]: < 100 nM

SMILES: CC(=O)Nc1nc(C)c(-c2nc(C(=O)NC3COC3)no2)s1 [Example 96]
- IC50 [1]: 100 to 500 nM

SMILES: Cc1nc(NC(=O)NCCOC(=O)C(C)(C)C)sc1-c1nc(-c2cccnc2)no1 [Example 135]
- IC50 [1]: < 100 nM

SMILES: Cc1nc(NC(=O)NCCN)sc1-c1nc(-c2cccnc2)no1 [Example 138]
- IC50 [1]: < 100 nM

SMILES: Cc1nc(NC(=O)NCCC(=O)NC(C)(C)CO)sc1-c1nc(-c2cccnc2)no1 [Example 149]
- IC50 [1]: < 100 nM

SMILES: CC(=O)Nc1nc(C)c(-c2nc(C(C)(C)CCO)no2)s1 [Example 73]
- IC50 [1]: < 100 nM

SMILES: CC(=O)Nc1nc(C)c(-c2nc(C(N)=O)no2)s1 [Example 70]
- IC50 [1]: 100 to 500 nM

SMILES: Cc1nc(NC(=O)NCC(C)O)sc1-c1nc(-c2cncnc2)no1 (centres unmarked) [Example 176]
- IC50 [1]: < 100 nM

SMILES: CC(=O)Nc1nc(C)c(-c2nc(-c3ccc(=O)n(C)c3)no2)s1 [Example 39]
- IC50 [1]: 100 to 500 nM

SMILES: CC(=O)Nc1nc(C)c(-c2nc(CC(C)(C)COS(C)(=O)=O)no2)s1 [Example 76]
- IC50 [1]: 100 to 500 nM

SMILES: C=Cc1noc(-c2sc(NC(C)=O)nc2C)n1 [Example 35]
- IC50 [1]: 100 to 500 nM

SMILES: Cc1nc(NC(=O)NCCS(=O)(=O)NC(C)(C)C)sc1-c1nc(-c2cccnc2)no1 [Example 133]
- IC50 [1]: < 100 nM

SMILES: CC(=O)Nc1nc(C)c(-c2nc(C(C)NS(C)(=O)=O)no2)s1 (centres unmarked) [Example 81]
- IC50 [1]: 500 to 10000 nM

SMILES: Cc1nc(NC(=O)NCCC(=O)N(C)C)sc1-c1nc(-c2cccnc2)no1 [Example 131]
- IC50 [1]: < 100 nM

SMILES: Cc1nc(NC(=O)NCCCNC(C)(C)C)sc1-c1nc(-c2cccnc2)no1 [Example 148]
- IC50 [1]: < 100 nM

SMILES: Cc1nc(NC(=O)NCCC(=O)OC(C)(C)C)sc1-c1nc(CC(C)(C)O)no1 [Example 170]
- IC50 [1]: < 100 nM

SMILES: Cc1nc(N)sc1-c1nc(CC(C)(C)CO)no1 [Example 156]
- IC50 [1]: < 100 nM

SMILES: CC(=O)Nc1nc(C)c(-c2nc(C(C)(C)O)no2)s1 [Example 64]
- IC50 [1]: < 100 nM

SMILES: CC(=O)Nc1nc(C)c(-c2nc(C3CCOCC3)no2)s1 [Example 54]
- IC50 [1]: < 100 nM

SMILES: CC(=O)Nc1nc(C)c(-c2nc(-c3ccccc3)no2)s1 [Example 7]
- IC50 [1]: < 100 nM

SMILES: CNC(=O)c1noc(-c2sc(NC(C)=O)nc2C)n1 [Example 78]
- IC50 [1]: 100 to 500 nM

SMILES: CC(=O)Nc1nc(C)c(-c2nc(-c3cncc(C)c3)no2)s1 [Example 15]
- IC50 [1]: < 100 nM

SMILES: COc1ccc(-c2noc(-c3sc(NC(C)=O)nc3C)n2)cn1 [Example 4]
- IC50 [1]: < 100 nM

SMILES: CC(=O)Nc1nc(C)c(-c2nc(N3CCCC(O)C3)no2)s1 (centres unmarked) [Example 93]
- IC50 [1]: < 100 nM

SMILES: Cc1nc(NC(=O)C(C)C)sc1-c1nc(-c2cccnc2)no1 [Example 115, 2-Methyl-N-{4-methyl-5-[3-(pyridin-3-yl)-1,2,4-oxadiazol-5-yl]-1,3-thiazol-2-yl}propanamide]
- IC50 [1]: 100 to 500 nM

SMILES: CC(=O)Nc1nc(C)c(-c2nc(-c3cncnc3)no2)s1 [Example 3, N-{4-methyl-5-[3-(pyrimidin-5-yl)-1,2,4-oxadiazol-5-yl]-1,3-thiazol-2-yl}acetamide]
- IC50 [1]: < 100 nM

SMILES: CC(=O)Nc1nc(C)c(-c2nc(C(C)NC(=O)OC(C)(C)C)no2)s1 (centres unmarked) [Example 74]
- IC50 [1]: 500 to 10000 nM

SMILES: CC(=O)Nc1nc(C)c(-c2nc(-c3cccc(O)c3)no2)s1 [Example 27]
- IC50 [1]: < 100 nM

SMILES: CCn1cnc(CCNC(=O)Nc2nc(C)c(-c3nc(-c4cccnc4)no3)s2)c1 [Example 172]
- IC50 [1]: < 100 nM

SMILES: COCCc1noc(-c2sc(NC(=O)NCCC(=O)OC(C)(C)C)nc2C)n1 [Example 154]
- IC50 [1]: < 100 nM

SMILES: Cc1nc(NC(=O)NCCC(=O)NC(C)(CO)CO)sc1-c1nc(CC(F)(F)F)no1 [Example 164]
- IC50 [1]: < 100 nM

SMILES: CC(=O)Nc1nc(C)c(-c2nc(N3CC[C@H](O)C3)no2)s1 [Example 102]
- IC50 [1]: 100 to 500 nM

SMILES: CC(=O)Nc1nc(C)c(-c2nc(CCCO)no2)s1 [Example 33]
- IC50 [1]: 100 to 500 nM

SMILES: CCOC(=O)Nc1nc(C)c(-c2nc(CC(C)(C)CO)no2)s1 [Example 158]
- IC50 [1]: < 100 nM

SMILES: CC(=O)Nc1nc(C)c(-c2nc(-c3ccc(=O)[nH]c3)no2)s1 [Example 40]
- IC50 [1]: 100 to 500 nM

SMILES: CC(=O)Nc1nc(C)c(-c2nc(/C=C(\C)CO)no2)s1 [Example 98]
- IC50 [1]: < 100 nM

SMILES: CC(=O)Nc1nc(C)c(-c2nc(Cc3cccc(CO)c3)no2)s1 [Example 36]
- IC50 [1]: 500 to 10000 nM

SMILES: CC(=O)Nc1nc(C)c(-c2nc(CCCCO)no2)s1 [Example 61]
- IC50 [1]: 100 to 500 nM
